# From ChEMBL document CHEMBL1128132, “Ace inhibitors as a template for the design of bradykinin B2 receptor antagonists” (Bioorg Med Chem Lett, 1995)
# Target: T1, B2 bradykinin receptor (Homo sapiens, UniProt P30411)
# T1 sequence (P30411 whole entry): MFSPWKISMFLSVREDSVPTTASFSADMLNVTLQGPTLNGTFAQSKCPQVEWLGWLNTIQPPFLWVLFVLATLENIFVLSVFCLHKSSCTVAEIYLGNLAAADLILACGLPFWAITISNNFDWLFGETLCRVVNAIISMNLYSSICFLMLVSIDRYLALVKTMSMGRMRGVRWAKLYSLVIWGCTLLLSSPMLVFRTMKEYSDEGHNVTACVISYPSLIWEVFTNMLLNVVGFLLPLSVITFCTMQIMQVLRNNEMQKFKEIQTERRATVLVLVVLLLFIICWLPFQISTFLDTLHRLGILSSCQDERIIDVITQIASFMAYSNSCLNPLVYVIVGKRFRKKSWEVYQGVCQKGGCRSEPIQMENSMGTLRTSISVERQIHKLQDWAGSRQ
# Assay: Tested for binding affinity against human IMR-90 Bradykinin receptor B2
row,Ki,SMILES
1,10 µM,CCCC[P+](CCCC)(CCCC)Cc1ccc(NC(=O)C2Cc3ccccc3CN2C(=O)CCCc2ccccc2)cc1 (stereo not drawn)
2,8 µM,CCCC[P+](CCCC)(CCCC)Cc1ccc(NC(=O)C2Cc3ccccc3CN2C(=O)C(CCc2ccccc2)NC(=O)OC(C)(C)C)cc1 (stereo not drawn)

# Target: T2, B2 bradykinin receptor (Homo sapiens) (UniProt P30411)
# T2 sequence (whole entry): T1 sequence (P30411 whole entry)
# Assay: Tested for percent inhibition of binding affinity against Bradykinin receptor B2 at 10 uM concentration
row,inhibition,SMILES
1,26%,"CCCC[PH](CCCC)(CCCC)Cc1ccc(NC(=O)C2Cc3ccccc3CN2C(=O)[C@@H](N)CCc2ccccc2)cc1 (single isomer, unassigned; diastereomer 1)"
2,26%,"CCCC[PH](CCCC)(CCCC)Cc1ccc(NC(=O)C2Cc3ccccc3CN2C(=O)[C@@H](N)CCc2ccccc2)cc1 (single isomer, unassigned; diastereomer 2)"
3,18%,CCCC[P+](CCCC)(CCCC)Cc1ccc(NC(=O)C2Cc3ccccc3CN2C(=O)CNC(=O)OC(C)(C)C)cc1 (stereo not drawn)
4,36%,CCCC[PH](CCCC)(CCCC)Cc1ccc(NC(=O)C2Cc3ccccc3CN2C(=O)CN)cc1 (stereo not drawn)
5,> 50%,CCCC[P+](CCCC)(CCCC)Cc1ccc(NC(=O)C2Cc3ccccc3CN2C(=O)CCCc2ccccc2)cc1 (stereo not drawn)
6,> 50%,CCCC[P+](CCCC)(CCCC)Cc1ccc(NC(=O)C2Cc3ccccc3CN2C(=O)C(CCc2ccccc2)NC(=O)OC(C)(C)C)cc1 (stereo not drawn)

# More lines, now with the values behind:
row,SMILES,inhibition
1,"CCCC[PH](CCCC)(CCCC)Cc1ccc(NC(=O)C2Cc3ccccc3CN2C(=O)[C@H](CCc2ccccc2)N/C(=N/C2CCCCC2)NC2CCCCC2)cc1 (single isomer, unassigned; diastereomer 1)",> 50%
2,CCCC[PH](CCCC)(CCCC)Cc1ccc(NC(=O)C2Cc3ccccc3CN2/C(=N/C2CCCCC2)NC2CCCCC2)cc1 (stereo not drawn),34%
3,CCCC[PH](CCCC)(CCCC)Cc1ccc(NC(=O)C2Cc3ccccc3CN2C(=O)CN/C(=N/C2CCCCC2)NC2CCCCC2)cc1 (stereo not drawn),33%
4,"CCCC[PH](CCCC)(CCCC)Cc1ccc(NC(=O)C2Cc3ccccc3CN2C(=O)[C@H](CCc2ccccc2)N/C(=N/C2CCCCC2)NC2CCCCC2)cc1 (single isomer, unassigned; diastereomer 2)",> 50%
5,O=C(Nc1ccc(CN/C(=N/C2CCCCC2)NC2CCCCC2)cc1)C1Cc2ccccc2CN1C(=O)CN/C(=N/C1CCCCC1)NC1CCCCC1 (stereo not drawn),12%
